Measured values as given in patent US20170000866A1, “METHOD FOR EMULSIFYING A TRIEPITOPE PEPTIDE WITH MONTANIDE AND KITS FOR PERFORMING THE SAME” (VAXON BIOTECH, priority 2013, published 2017).
Ends that are not written are not given here.

Assay: Vx006 solubilisation in solvents for injection
Assay type: physicochemical
Conditions: in water for injection
Protocol: For vaccinating a patient, 1 ml of solvent is added on the lyocake to resuspend the peptide, 0.7 ml of peptide in solution is then loaded in a silicone free syringe and 0.7 ml of MONTANIDE ISA51VG in a second syringe. Both syringes are then connected to the I-connector for the emulsification protocol.
According to SEPPIC recommendations, to the fact that the emulsion is performed for human administration (preventing the use of solvents as DMSO etc.), results presented in Example 1 above and solubility prediction, Vx006 was initially diluted in saline buffer. Two saline solvents were tested, NaCl 0.9% and PBS. […] Moreover, the addition of several solvents developed by Seppic and compatible with injection in humans and emulsion with MONTANIDE were tested during the Vx006 manufacturing development.
The vial can be gently agitated to accelerate the dissolution, if necessary. The dissolution can also be performed at cold temperature (0-10° C.).

- Solubility: perfectly soluble
- pH of the solubilised peptide: around 7
Sequence: YLQVNSLQTVYLEYRQVPVYLEEITGYL [Vx006]
